The subject of test [1] is LNCaP prostate cancer cells. Description: Cell viability assay (PrestoBlue) on LNCaP cells. It is filed as cell-based, human. As to conditions: Homo sapiens, LNCaP, 72 h, 72 h treatment; PrestoBlue; mean of three independent experiments ± SEM; read-out: LNCaP GI50. The procedure: (§1) The human prostate cancer cell line PC-3 (ATCC Cat# CRL-1435) was grown in Ham’s F12 (Biowest, Nuaillé, France) medium, while the human prostate cancer cell line LNCaP (ATCC Cat# CRL-1740) was grown in RPMI 1640 (Biowest, Nuaillé, France) medium. Both media were supplemented with 10% Fetal Bovine Serum (FBS, Gibco, Fisher Scientific Italia, Segrate, Italy), 2 mM glutamine, 100 U/mL penicillin, and 100 μg/mL streptomycin. PC-3 and LNCaP cells were maintained at 37 °C in a humidified 5% CO2 atmosphere.
(§2) PC-3 and LNCaP cells were seeded at a density of 4000 and 6000 cells/well into a 96-well plate, respectively, together with a calibration curve of known cell numbers. The following day, the cells were treated with the indicated test compounds at different concentrations starting at 75μM with 2-fold serial dilutions. Cell viability was evaluated after 72h by colorimetric MTT (PC-3) or PrestoBlue™ (LNCaP) cell viability reagents. A total of 0.5 mg/mL of thiazolyl blue tetrazolium bromide (MTT) (Sigma-Aldrich, St. Louis, MO, USA) in Ham’s F12 medium was added to the wells, and the plate was incubated at 37 °C for 2 h. Medium containing unconverted MTT was removed, and 100 μL of MTT solvent (4 mM HCl, 0.1% NP40, in isopropyl alcohol) was added to the wells in order to solubilize MTT crystals. After 15 min of incubation at room temperature, the absorbance values at 570 nm were obtained with a Multiskan FC Microplate Photometer (Thermo Fisher Scientific, Waltham, MA, USA). PrestoBlue reagent (#A13261, Thermo Fisher Scientific, Waltham, MA, USA) was added to the medium (1:10 v/v) and incubated for 1 h at 37 °C. Cell viability was calculated by quantifying PrestoBlue reduction by measuring the absorbance at 570 and 620 nm, according to the manufacturer’s protocol. The viability of untreated cells was arbitrarily set at 100%, and the concentration at which cellular growth is inhibited by 50% (GI50) was determined. Three independent experiments were performed.

Test [2] deals with PC-3 prostate cancer cells. The experiment in a line: Cell viability assay (MTT) on PC-3 cells. The class given is cell-based, human. As to conditions: Homo sapiens, PC-3, 72 h, 72 h treatment; MTT; mean of three independent experiments ± SEM; read-out: PC-3 GI50. The procedure: as §1, §2
The target of another test is T1, HDAC6 recombinant enzyme (Homo sapiens, UniProt Q9UBN7).
T1 sequence (Q9UBN7 1-1215): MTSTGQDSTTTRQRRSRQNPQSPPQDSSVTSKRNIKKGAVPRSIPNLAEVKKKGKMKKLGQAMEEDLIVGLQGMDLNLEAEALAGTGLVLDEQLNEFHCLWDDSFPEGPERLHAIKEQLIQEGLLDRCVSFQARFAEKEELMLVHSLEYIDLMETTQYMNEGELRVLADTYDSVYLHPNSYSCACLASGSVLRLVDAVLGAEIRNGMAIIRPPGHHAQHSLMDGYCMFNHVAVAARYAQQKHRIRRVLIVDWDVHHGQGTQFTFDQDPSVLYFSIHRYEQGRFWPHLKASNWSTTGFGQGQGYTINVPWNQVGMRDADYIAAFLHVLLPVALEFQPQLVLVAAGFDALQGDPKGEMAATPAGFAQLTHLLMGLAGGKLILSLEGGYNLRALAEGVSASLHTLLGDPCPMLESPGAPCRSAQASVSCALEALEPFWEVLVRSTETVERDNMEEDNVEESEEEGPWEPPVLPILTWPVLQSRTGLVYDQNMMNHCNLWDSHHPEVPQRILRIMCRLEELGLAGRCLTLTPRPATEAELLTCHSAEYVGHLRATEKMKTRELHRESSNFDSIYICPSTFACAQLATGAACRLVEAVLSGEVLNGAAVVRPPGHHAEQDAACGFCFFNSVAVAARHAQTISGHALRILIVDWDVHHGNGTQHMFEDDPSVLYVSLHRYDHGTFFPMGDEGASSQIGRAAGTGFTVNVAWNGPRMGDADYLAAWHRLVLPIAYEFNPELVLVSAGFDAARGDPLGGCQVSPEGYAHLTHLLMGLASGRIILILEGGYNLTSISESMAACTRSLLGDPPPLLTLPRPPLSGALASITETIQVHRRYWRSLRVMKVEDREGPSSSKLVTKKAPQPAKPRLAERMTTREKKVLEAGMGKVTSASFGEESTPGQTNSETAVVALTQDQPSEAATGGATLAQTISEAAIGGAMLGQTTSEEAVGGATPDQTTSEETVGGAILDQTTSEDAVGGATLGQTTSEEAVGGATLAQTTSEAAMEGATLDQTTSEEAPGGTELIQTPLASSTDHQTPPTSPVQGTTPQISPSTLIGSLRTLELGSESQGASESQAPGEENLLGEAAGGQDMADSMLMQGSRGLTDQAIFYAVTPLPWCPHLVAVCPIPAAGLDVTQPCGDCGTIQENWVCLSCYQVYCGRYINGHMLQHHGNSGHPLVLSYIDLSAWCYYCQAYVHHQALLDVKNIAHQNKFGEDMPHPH
The experiment in a line: Fluorimetric HDAC6 assay. The class given is biochemical. As to conditions: singlicate. On the procedure: In vitro assessments of compounds on the HDAC6 enzyme were performed, as described in our previous works. […] The blank employed for curve fitting was evaluated on a solution of the buffer containing a concentration of […] of DMSO. IC50 values were calculated by using the GraphPad Prism 4 program based on a sigmoidal dose–response equation.

The target of another test is Hsp90 (UniProt ID: P07900). More on the design: method as in ChEMBL [62]. As to conditions: ChEMBL record on recombinant protein, ref ChEMBL [62], cited from earlier work; for IC50: read-out: Hsp90 IC50 (Standard Value).
In another test the target is HDAC6 (UniProt ID: Q9UBN7). More on the design: method as in ChEMBL [62]. As to conditions: ChEMBL record on recombinant protein; ref ChEMBL [62]; read-out: HDAC6 IC50 (Standard Value); cited from earlier work.

In general, GI50 refers to the concentration at which growth is held to half of that of the control. As a reminder, the IC50 is the concentration that inhibits the measured activity by half. Usually Ki stands for a measure of affinity in units of concentration, obtained from inhibition or displacement.

As to `N#Cc1ccc(NC(=O)c2cccc(-c3noc(C(F)(F)F)n3)c2)c(O)c1` [Compound 4], the GI50 stood at 9500 ± 700 nM in test [1] and 9500 ± 500 nM in test [2]. The IC50 on HDAC6 recombinant enzyme amounted to 17000 nM.
As for `CC(C)c1cc(-c2onc(C(=O)N[C@@H](C(=O)N3CC(F)(F)C3)C(C)C)c2-c2ccc(CN3CCOCC3)cc2)c(O)cc1O` [CHEMBL4096929], the IC50 with Hsp90 is 39 nM.
For `CCNC(=O)c1noc(-c2cc(Cl)c(O)cc2O)c1-c1ccc(CN2CCOCC2)cc1C` [CHEMBL4060353], the Ki at Hsp90 (read-out: Hsp90 Ki (Standard Value)) is 32 nM.
In the case of `CC(C)c1cc(C(=O)N2Cc3ccc(NCc4ccc(C(=O)NO)cc4)cc3C2)c(O)cc1O` [CHEMBL4782478], the IC50 was 33.3 nM with HDAC6 and 66 nM in the test with Hsp90.

(Values after article PMC11357446, “Searching for Novel HDAC6/Hsp90 Dual Inhibitors with Anti-Prostate Cancer Activity: In Silico Screening and In Vitro Evaluation” (Pharmaceuticals, 2024).)
